Our source for the melting point values is patent publication US7598382B2, “Aryl substituted imidazoquinolines” (Coley Pharmaceutical Group, Inc., priority 2002, dated 2009).

For orientation: melting point means the temperature, or range, at which the solid turns liquid.

Where a name gives a salt, the structure may show the parent alone.

Turning to `CCCCc1nc2c(N)nc3cc(-c4cccnc4)ccc3c2n1CCN1CCCS1(=O)=O` [Example 393, 1-[2-(1,1-Dioxo-1-isothiazolidin-2-yl)ethyl]-2-butyl-7-(pyridin-3-yl)-1H-imidazo[4,5-c]quinolin-4-amine], the melting point fell in the range of 290 to 292 °C.

As for `CCOCc1nc2c(N)nc3cc(-c4ccco4)ccc3c2n1CCCOC` [Example 168, 2-Ethoxymethyl-7-(furan-2-yl)-1-(3-methoxypropyl)-1H-imidazo[4,5-c]quinolin-4-amine], the melting point was in the range of 144 to 145 °C. In the case of `COCCc1nc2c(N)nc3ccc(-c4cccc(C(C)=O)c4)cc3c2n1CCCN1CCCC1=O` (hydrate or solvate) [Example 189, 1-{3-[8-(3-Acetylphenyl)-4-amino-2-(2-methoxyethyl)-1H-imidazo[4,5-c]quinolin-1-yl]propyl}pyrrolidin-2-one], the melting point fell in the range of 164 to 167 °C. For `CCOCc1nc2c(N)nc3cc(-c4cccnc4)ccc3c2n1CCCCNC(=O)C(C)C` [Example 373, N-{4-[4-Amino-2-ethoxymethyl-7-(pyridin-3-yl)-1H-imidazo[4,5-c]quinolin-1-yl]butyl}-2-methylpropanamide], the melting point lay in the range of 200 to 202 °C. For the molecule `COCCc1nc2c(N)nc3cc(-c4ccsc4)ccc3c2n1CC(C)(C)O` [Example 137, 1-[4-Amino-2-(2-methoxyethyl)-7-(thiophen-3-yl)-1H-imidazo[4,5-c]quinolin-1-yl]-2-methylpropan-2-ol], the melting point was 233 to 234 °C. In the case of `COCCc1nc2c(N)nc3cc(-c4ccccc4)ccc3c2n1CCCCNS(C)(=O)=O` [Example 199, N-{4-[4-Amino-2-(2-methoxyethyl)-7-phenyl-1H-imidazo[4,5-c]quinolin-1-yl]butyl}methanesulfonamide], the melting point was in the range of 201 to 202 °C. The molecule `CCc1nc2c(N)nc3cc(-c4ccncc4)ccc3c2n1CC(C)(C)O` [Example 143, 1-[4-Amino-2-ethyl-7-(pyridin-4-yl)-1H-imidazo[4,5-c]quinolin-1-yl]-2-methylpropan-2-ol] came in with a melting point of more than 250 °C.

In the case of `CCOCc1nc2c(N)nc3cc(-c4ccc(OC(C)C)cc4)ccc3c2n1CCCOC` [Example 173, 2-Ethoxymethyl-7-[4-(2-propoxy)phenyl]-1-(3-methoxypropyl)-1H-imidazo[4,5-c]quinolin-4-amine], the melting point was in the range of 175 to 177 °C.

For `CCOCc1nc2c(N)nc3cc(-c4ccncc4)ccc3c2n1CCCCN1CCCS1(=O)=O` [Example 154, 1-[4-(1,1-Dioxidoisothiazolidin-2-yl)-butyl]-2-ethoxymethyl-7-(pyridin-4-yl)-1H-imidazo[4,5-c]quinolin-4-amine], the melting point fell in the range of 186 to 187.5 °C. With `COc1ccc(Cc2nc3c(N)nc4cc(-c5ccccc5)ccc4c3n2CCOc2ccccc2)cc1` [Example 198, 2-(4-Methoxybenzyl)-1-(2-phenoxyethyl)-7-phenyl-1H-imidazo[4,5-c]quinolin-4-amine], the melting point fell in the range of 197 to 198 °C. On to `CCOCc1nc2c(N)nc3cc(-c4ccccc4)ccc3c2n1CC(C)(C)NC(=O)NC1CCCCC1` [Example 203, N-[2-(4-Amino-2-ethoxymethyl-7-phenyl-1H-imidazo[4,5-c]quinolin-1-yl)-1,1-dimethylethyl]-N′-cyclohexylurea], for which the melting point was 152 to 156 °C. The figure for `CCCCCCC1(CCCCCC)c2cc(-c3ccc4c(c3)nc(N)c3nc(CCOC)n(CCCN5CCCC5=O)c34)ccc2-c2ccc(-c3ccc4c(c3)nc(N)c3nc(CCOC)n(CCCN5CCCC5=O)c34)cc21` [Example 476, 1-[4-Amino-7-(7-{4-amino-2-(2-methoxyethyl)-1-[3-(pyrrolidin-2-one)propyl]-1H-imidazo[[4,5-c]quinolin-7-yl}-9,9-dihexyl-9H-fluoren-2-yl)-2-(2-methoxyethyl)-1H-imidazo[4,5-c]quinolin-1-yl]propyl}pyrrolidin-2-one] is 251 to 254 °C; for `CCOCc1nc2c(N)nc3cc(-c4cccnc4)ccc3c2n1C[C@@H]1COC(C)(C)O1` [Example 487, (R)-1-[(2,2-Dimethyl-1,3-dioxolan-4-yl)methyl]-2-ethoxymethyl-7-(pyridin-3-yl)-1H-imidazo[4,5-c]quinolin-4-amine] it is 155 to 156 °C. For `CCOCc1nc2c(N)nc3cc(-c4ccccc4)ccc3c2n1CC(C)(C)NC(=O)C1CCCCC1` [Example 202, Cyclohexane N-[2-(4-amino-2-ethoxymethyl-7-phenyl-1H-imidazo[4,5-c]quinolin-1-yl)-1,1-dimethylethyl]carboxamide], the melting point was in the range of 195 to 198 °C. The figure for `CCOCc1nc2c(N)nc3cc(-c4ccccc4)ccc3c2n1CC1COC(C)(C)O1` (centres unmarked) [Example 161, 1-[(2,2-Dimethyl-1,3-dioxolan-4-yl)methyl]-2-ethoxymethyl-7-phenyl-1H-imidazo[4,5-c]quinolin-4-amine] is 168 to 170 °C; for `CCCCc1nc2c(N)nc3cc(-c4ccc(C(C)(C)C)cc4)ccc3c2n1CC(C)C` [Example 4, 2-Butyl-7-(4-tert-butylphenyl)-1-isobutyl-1H-imidazo[4,5-c]quinolin-4-amine] it is 219 to 220 °C. As for `CCOCc1nc2c(N)nc3cc(CCc4ccc(C(F)(F)F)cc4)ccc3c2n1CC(C)C` [Example 117, 2-Ethoxymethyl-1-(2-methylpropyl)-7-{2-[(trifluoromethyl)phenyl]ethyl}-1H-imidazo[4,5-c]quinolin-4-amine], the melting point fell in the range of 175.5 to 178 °C.

Molecule `CCOCc1nc2c(N)nc3cc(-c4cccc(C(=O)N5CCOCC5)c4)ccc3c2n1CC(C)(C)O` [Example 130, {3-[4-Amino-2-ethoxymethyl-1-(2-hydroxy-2-methylpropyl)-1H-imidazo[4,5-c]quinolin-7-yl]phenyl}morpholin-4-ylmethanone] came in with a melting point of 152 to 154 °C. As to `CCCCn1c(COCC)nc2c(N)nc3ccc(-c4ccccc4)cc3c21` [Example 18, 1-Butyl-2-ethoxymethyl-8-phenyl-1H-imidazo[4,5-c]quinolin-4-amine], the melting point lay within 186 to 187 °C. In turn, `CCCOc1ccc(-c2cccc3nc(N)c4ncn(CC(C)C)c4c23)cc1` [Example 483, 1-(2-Methylpropyl)-9-(4-propoxyphenyl)-1H-imidazo[4,5-c]quinolin-4-amine] yielded a melting point of 181 to 182 °C. The figure for `CCOCc1nc2c(N)nc3cc(-c4ccc(-c5ccc6c(c5)nc(N)c5nc(COCC)n(CC(C)(C)O)c56)cc4)ccc3c2n1CC(C)(C)O` [Example 474, 1-(4-Amino-7-{4-[4-amino-2-ethoxymethyl-1-(2-hydroxy-2-methylpropyl)-1H-imidazo[4,5-c]quinolin-7-yl]phenyl}-2-ethoxymethyl-1H-imidazo[4,5-c]quinolin-1-yl)-2-methylpropan-2-ol] is 325 to 328 °C; for `CCOCc1nc2c(N)nc3ccc(Cc4ccccc4)cc3c2n1CC(C)(C)O` [Example 436, 1-(4-Amino-8-benzyl-2-ethoxymethyl-1H-imidazo[4,5-c]quinolin-1-yl)-2-methylpropan-2-ol] it is 209 to 210 °C. Consider `CCCC(=O)NCCCCn1c(COCC)nc2c(N)nc3cc(-c4cccnc4)ccc3c21` [Example 372, N-{4-[4-Amino-2-ethoxymethyl-7-(pyridin-3-yl)-1H-imidazo[4,5-c]quinolin-1-yl]butyl}butyramide], for which the melting point fell in the range of 150 to 152 °C.

Consider `CCOCc1nc2c(N)nc3cc(-c4cccnc4)ccc3c2n1CC(C)C` [Example 113, 2-Ethoxymethyl-1-(2-methylpropyl)-7-(pyridin-3-yl)-1H-imidazo[4,5-c]quinolin-4-amine], for which the melting point is 179.5 to 181.5 °C.

With `CCOCc1nc2c(N)nc3cc(-c4ccccc4)ccc3c2n1CC1CCN(C(=O)C(C)C)CC1` (hydrate or solvate) [Example 194, 2-Ethoxymethyl-1-[(1-isobutyrylpiperidin-4-yl)methyl]-7-phenyl-1H-imidazo[4,5-c]quinolin-4-amine], the melting point fell in the range of 156 to 158 °C.

As for `CCOCc1nc2c(N)nc3cc(-c4cccnc4)ccc3c2n1CC1CCN(S(C)(=O)=O)CC1` (as salt: HCl) [Example 178, 2-Ethoxymethyl-1-{[1-(methanesulfonyl)piperidin-4-yl]methyl}-7-(pyridin-3-yl)-1H-imidazo[4,5-c]quinolin-4-amine], the melting point lay within 254 to 255 °C.
